Measured values reported in patent publication US20220030868A1, “FUNGICIDAL HALOMETHYL KETONES AND HYDRATES” (FMC CORPORATION, priority 2018, published 2022).

Columns and labels:
Phakopsora pachyrhizi = assay: Test A: test suspension sprayed on soybean seedlings one day before inoculation with Phakopsora pachyrhizi spores (Asian soybean rust), visual disease rating; assay type: in vivo; conditions: 100 = 100% disease control, 0 = no control
Method in brief: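 Soybean seedlings were sprayed to run-off with test suspension (acetone 3% of volume, acetone/water 50/50, 250 ppm PEG400) and inoculated with rust spores one day later. Incubation: 24 h saturated atmosphere at 22° C, then 8 days growth chamber at 22° C; scores 0–100 relative to untreated controls.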

[1] = test system: Puccinia recondita f. sp. tritici; assay: Test B: test suspension sprayed on wheat seedlings one day before inoculation with Puccinia recondita f. sp. tritici spores (wheat leaf rust), disease rating; assay type: in vivo; conditions: 100 = 100% disease control, 0 = no control
Method in brief: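 Wheat seedlings were sprayed to run-off with compound suspended in 50/50 acetone/water containing 250 ppm PEG400, then inoculated with P. recondita f. sp. tritici spores the next day. Plants were held 24 h in saturated air at 20 °C, then 6 days in a growth chamber at 20 °C. Disease control was rated 0–100% relative to controls, with some entries run at 50 or 10 ppm.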

SMILES | Test A rating (disease control) (Phakopsora pachyrhizi; 10 ppm test suspension) | Test B rating (disease control) ([1]; 10 ppm test suspension) | other results
O=C(OCc1ccccn1)c1cnn(Cc2ccc(OCC3(C(F)(F)F)OCCO3)cc2)c1 [compound 199] | 100% | 0% | 
O=C(OCc1cccnc1)c1cnn(Cc2ccc(OCC3(C(F)(F)F)OCCO3)cc2)c1 [compound 200] | 100% | 0% | 
O=C(OCc1ccncc1)c1cnn(Cc2ccc(OCC3(C(F)(F)F)OCCO3)cc2)c1 [compound 201] | 100% | 0% | 
O=C(OCC(=O)C1CCCCC1)c1cnn(Cc2ccc(OCC3(C(F)(F)F)OCCO3)cc2)c1 [compound 202] | 100% | 0% | 
COC(=O)COC(=O)c1cnn(Cc2ccc(OCC3(C(F)(F)F)OCCO3)cc2)c1 [compound 203] | 50% | 0% | 
O=C(OCC1OCCO1)c1cnn(Cc2ccc(OCC3(C(F)(F)F)OCCO3)cc2)c1 [compound 204] | 100% | 0% | 
CCO/C(=C\Oc1ccc(Cn2cc(C#N)cn2)cc1)C(F)(F)F [compound 205] | 0% | 0% | 
O=S(=O)(NCc1ccc(OCC2(C(F)(F)F)OCCO2)cc1)C(F)(F)F [compound 207] | 0% | 0% | 
N#Cc1cnn(Cc2ccc(OCC3(C(F)(F)F)OCCO3)cc2)c1 [compound 209] | 89% | 0% | 
CCO/C(=C\Oc1ccc(CNC(=O)C(C)C)cc1)C(F)(F)F [compound 210] | 0% | 0% | 
O=C(CC(F)(F)F)NCc1ccc(OCC2(C(F)(F)F)OCCO2)cc1 [compound 212] | 44% | 0% | 
COC(C)C(=O)NCc1ccc(OCC2(C(F)(F)F)OCCO2)cc1 (stereo not shown) [compound 214] | 0% | 0% | 
CCO/C(=C\Oc1ccc(Cn2cc(C(=O)OCCOC)cn2)cc1)C(F)(F)F [compound 222] | 100% | 0% | 
CCO/C(=C\Oc1ccc(CN2CCCC2=O)cc1)C(F)(F)F [compound 224] | 0% | 0% | 
CCO/C(=C\Oc1ccc(CN2CCC(C)(C)C2=O)cc1)C(F)(F)F [compound 225] | 0% | 0% | 
CCO/C(=C\Oc1ccc(Cn2c(=O)oc3ccccc32)cc1)C(F)(F)F [compound 226] | 0% | 0% | 
C=C(C)COC(=O)c1cnn(Cc2ccc(OCC3(C(F)(F)F)OCCO3)cc2)c1 [compound 228] | 100% | 0% | 
CCO/C(=C\Oc1ccc(C(=O)OC)cc1)C(F)(F)F [compound 230] | 0% | 0% | 
CCOC(=O)c1ccn(Cc2ccc(OCC3(C(F)(F)F)OCCO3)cc2)n1 [compound 232] | 98% | 0% | 

SMILES | Test A rating (disease control) (Phakopsora pachyrhizi; 10 ppm test suspension) | Test B rating (disease control) ([1]; 10 ppm test suspension) | other results
CON(Cc1ccc(OCC2(C(F)(F)F)OCCO2)cc1)C(=O)C(C)C [compound 235] | 97% | 0% | 
CON(Cc1ccc(OCC2(C(F)(F)F)OCCO2)cc1)C(=O)C1CC1 [compound 236] | 75% | 0% | 
CCCC(=O)N(Cc1ccc(OCC2(C(F)(F)F)OCCO2)cc1)OC [compound 237] | 97% | 0% | 
CON(Cc1ccc(OCC2(C(F)(F)F)OCCO2)cc1)C(=O)OC(C)(C)C [compound 238] | 73% | 0% | 
N#CCc1ccc(OCC2(C(F)(F)F)OCCO2)cc1 [compound 239] | 0% | 0% | 
CCOCc1cnn(Cc2ccc(OCC3(C(F)(F)F)OCCO3)cc2)c1 [compound 240] | 99% | 0% | 
CCOC(=O)c1ccnn1Cc1ccc(O/C=C(\OCC)C(F)(F)F)cc1 [compound 241] | 0% | 0% | 
C=C(C)COC(=O)c1cnn(Cc2ccc(O/C=C(\OCC)C(F)(F)F)cc2)c1 [compound 242] | 100% | 0% | 
CCO/C(=C\Oc1ccc(Cn2cc(C(=O)OCC(=O)c3ccccc3)cn2)cc1)C(F)(F)F [compound 244] | 100% | 0% | 
C=CCOC(=O)c1cnn(Cc2ccc(O/C=C(\OCC)C(F)(F)F)cc2)c1 [compound 246] | 100% | 0% | 
O=C(OCC1CCC1)c1cnn(Cc2ccc(OCC3(C(F)(F)F)OCCO3)cc2)c1 [compound 249] | 100% | 0% | 
CCO/C(=C\Oc1ccc(Cn2nccc2C(=O)OC)cc1)C(F)(F)F [compound 250] | 0% | 0% | 
CCO/C(=C\Oc1ccc(Cn2ccc(C(=O)OC)n2)cc1)C(F)(F)F [compound 251] | 100% | 9% | 
CCO/C(=C\Oc1ccc(Cn2nccc2C(=O)OC(C)(C)C)cc1)C(F)(F)F [compound 252] | 0% | 0% | 
CCO/C(=C\Oc1ccc(Cn2ccc(C(=O)OC(C)(C)C)n2)cc1)C(F)(F)F [compound 253] | 0% | 0% | 
CCO/C(=C\Oc1ccc(Cc2ncc(C(=O)NCC3CC3)s2)cc1)C(F)(F)F [compound 254] | 73% | 0% | 
CCO/C(=C\Oc1ccc(Cc2ncc(C(=O)NCC(F)F)o2)cc1)C(F)(F)F [compound 255] | 89% | 0% | 
CCO/C(=C\Oc1ccc(Cc2ncc(C(=O)NCC3CC3)o2)cc1)C(F)(F)F [compound 258] | 96% | 0% | 
CCOC(=O)c1cnn(Cc2ccc(OCC(O)(O)C(F)(F)F)c(F)c2)c1 [compound 264] |  |  | pest or weed control at 10 ppm (Phakopsora pachyrhizi; Phakopsora pachyrhizi, 10 ppm test suspension): 99%; pest or weed control at 10 ppm ([1]; 10 ppm test suspension): 80%

SMILES | Test A rating (disease control) (Phakopsora pachyrhizi; 10 ppm test suspension) | Test B rating (disease control) ([1]; 10 ppm test suspension) | other results
CCOC(=O)c1cnn(C(C)c2ccc(O/C=C(\OCC)C(F)(F)F)cc2)c1 (stereo not shown) [compound 267] | 94% | 0% | 
CCOC(=O)C1CCN(Cc2ccc(O/C=C(\OCC)C(F)(F)F)cc2)CC1 [compound 268] | 99% | 0% | 
CCOC(=O)C1CCCN(Cc2ccc(O/C=C(\OCC)C(F)(F)F)cc2)C1 (stereo not shown) [compound 269] | 100% | 0% | 
O=C(OCC1CCCCC1)c1cnn(Cc2ccc(OCC3(C(F)(F)F)OCCO3)cc2)c1 [compound 272] | 100% | 0% | 
CCOC(=O)c1cnn(Cc2ccc(OCC3(C(F)(F)F)OCCO3)s2)c1 [compound 273] |  |  | pest or weed control at 50 ppm (Phakopsora pachyrhizi; Phakopsora pachyrhizi, 50 ppm test suspension): 100%; pest or weed control at 50 ppm ([1]; 50 ppm test suspension): 0%
CCOC(=O)C1=NOC(c2ccc(O/C=C(\OCC)C(F)(F)F)cc2)C1 (stereo not shown) [compound 278] |  |  | Test A rating (disease control) (Phakopsora pachyrhizi; 50 ppm test suspension): 94%; Test B rating (disease control) ([1]; 50 ppm test suspension): 0%
CCO/C(=C\Oc1ccc([N+](=O)[O-])cc1)C(F)(F)F [compound 279] |  |  | Test A rating (disease control) (Phakopsora pachyrhizi; 50 ppm test suspension): 0%; Test B rating (disease control) ([1]; 50 ppm test suspension): 0%
CSc1nccc(Cc2ccc(OCC3(C(F)(F)F)OCCO3)cc2)n1 [compound 281] |  |  | Test A rating (disease control) (Phakopsora pachyrhizi; 50 ppm test suspension): 95%; Test B rating (disease control) ([1]; 50 ppm test suspension): 98%
CS(=O)(=O)c1nccc(Cc2ccc(OCC3(C(F)(F)F)OCCO3)cc2)n1 [compound 282] |  |  | Test A rating (disease control) (Phakopsora pachyrhizi; 50 ppm test suspension): 0%; Test B rating (disease control) ([1]; 50 ppm test suspension): 0%
O=C(OCC1CCCC1)c1cnn(Cc2ccc(OCC3(C(F)(F)F)OCCO3)cc2)c1 [compound 284] | 100% | 0% | 
CC=CCOC(=O)c1cnn(Cc2ccc(OCC3(C(F)(F)F)OCCO3)cc2)c1 [compound 285] | 100% | 0% | 
C=CCOC(=O)c1ccn(Cc2ccc(O/C=C(\OCC)C(F)(F)F)cc2)n1 [compound 291] | 100% | 0% | 
CCCOC(=O)c1ccn(Cc2ccc(O/C=C(\OCC)C(F)(F)F)cc2)n1 [compound 292] | 100% | 0% | 
CC#CCOC(=O)c1ccn(Cc2ccc(O/C=C(\OCC)C(F)(F)F)cc2)n1 [compound 293] | 100% | 0% | 
CCOC(=O)c1cnn(CCCc2ccc(O/C=C(\OCC)C(F)(F)F)cc2)c1 [compound 294] | 100% | 0% | 
CCOC(=O)c1cnn(CCCc2ccc(OCC3(C(F)(F)F)OCCO3)cc2)c1 [compound 296] | 0% | 0% | 
CCOC(=O)c1cnn(Cc2ccc(O/C=C(\OCC(F)(F)F)C(F)(F)F)cc2)c1 [compound 298] | 0% | 0% | 
CCO/C(=C\Oc1ccc(Cn2ccc(C(=O)O)n2)cc1)C(F)(F)F [compound 299] | 100% | 0% | 
